Where two headings read alike, the source gives them in different places.
Assays:
KRAS G12D = KRAS G12D (Homo sapiens, UniProt P01116+P62937, G12D); assay: Disruption of BRAF RBD interaction with Ras (FRET / MOA assay, with Cyclophilin A); assay type: biochemical
Summary of the method: (§1)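 IC50 values reflect loss of K-Ras binding to BRAF RBD, read as a lowered TR-FRET ratio compared with DMSO, driven by compound-mediated K-Ras:Cyclophilin A complex formation. Compound top dose 30 μM final, 3-fold steps, 3 h incubation at 25 °C before a 1.5 h antibody step.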

KRAS G13D = KRAS G13D (Homo sapiens, UniProt P01116+P62937, G13D); assay: as above; assay type: biochemical
Chain of KRAS G13D (P01116 1-169 isoform P01116-2 G13D limits assumed): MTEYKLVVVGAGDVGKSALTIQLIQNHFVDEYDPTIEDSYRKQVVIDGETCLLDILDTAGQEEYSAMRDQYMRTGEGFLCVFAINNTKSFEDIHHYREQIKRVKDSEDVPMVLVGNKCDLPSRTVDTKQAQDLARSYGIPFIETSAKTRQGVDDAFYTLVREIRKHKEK
Chain of KRAS G13D (P62937 whole entry): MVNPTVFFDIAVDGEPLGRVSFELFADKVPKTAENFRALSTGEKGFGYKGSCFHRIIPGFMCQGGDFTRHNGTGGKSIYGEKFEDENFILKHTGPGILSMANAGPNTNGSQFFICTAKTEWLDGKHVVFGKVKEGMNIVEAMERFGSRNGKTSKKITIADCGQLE
Summary of the method: as §1

KRAS G12C = KRAS G12C (Homo sapiens, UniProt P01116+P62937, G12C); assay: as above; assay type: biochemical
Chain of KRAS G12C (P01116 1-169 isoform P01116-2 G12C): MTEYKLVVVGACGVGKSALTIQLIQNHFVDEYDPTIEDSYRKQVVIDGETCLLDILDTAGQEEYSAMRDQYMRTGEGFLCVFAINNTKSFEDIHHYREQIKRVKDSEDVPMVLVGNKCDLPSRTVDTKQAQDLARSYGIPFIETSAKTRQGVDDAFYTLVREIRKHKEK
Chain of KRAS G12C (P62937 whole entry): as the sequence (P62937 whole entry) above
Summary of the method: as §1

NRAS G12C = NRAS G12C (Homo sapiens, UniProt P01111+P62937, G12C); assay: as above; assay type: biochemical
Chain of NRAS G12C (P01111 whole entry G12C): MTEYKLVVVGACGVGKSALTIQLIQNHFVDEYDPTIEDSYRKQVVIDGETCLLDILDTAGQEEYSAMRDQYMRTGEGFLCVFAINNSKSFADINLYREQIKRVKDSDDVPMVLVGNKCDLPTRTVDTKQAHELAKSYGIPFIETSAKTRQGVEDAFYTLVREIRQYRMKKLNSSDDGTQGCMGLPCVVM
Chain of NRAS G12C (P62937 whole entry): as the sequence (P62937 whole entry) above

KRAS G13C = KRAS G13C (Homo sapiens, UniProt P01116+P62937, G13C); assay: as above; assay type: biochemical
Chain of KRAS G13C (P01116 1-169 isoform P01116-2 G13C): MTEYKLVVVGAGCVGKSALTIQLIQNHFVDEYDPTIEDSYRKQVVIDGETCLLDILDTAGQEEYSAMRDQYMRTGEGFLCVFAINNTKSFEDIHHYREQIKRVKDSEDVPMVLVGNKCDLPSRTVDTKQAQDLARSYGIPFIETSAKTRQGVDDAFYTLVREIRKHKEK
Chain of KRAS G13C (P62937 whole entry): as the sequence (P62937 whole entry) above
Summary of the method: as §1

KRAS G12S = KRAS G12S (Homo sapiens, UniProt P01116+P62937, G12S); assay: as above; assay type: biochemical
Chain of KRAS G12S (P01116 1-169 isoform P01116-2 G12S limits assumed): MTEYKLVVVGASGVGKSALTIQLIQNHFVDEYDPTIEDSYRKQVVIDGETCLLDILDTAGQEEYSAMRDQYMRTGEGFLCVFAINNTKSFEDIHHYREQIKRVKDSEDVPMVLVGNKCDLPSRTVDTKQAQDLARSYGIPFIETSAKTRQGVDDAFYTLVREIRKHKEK
Chain of KRAS G12S (P62937 whole entry): as the sequence (P62937 whole entry) above
Summary of the method: as §1

KRAS G12V = KRAS G12V (Homo sapiens, UniProt P01116+P62937, G12V); assay: as above; assay type: biochemical
Chain of KRAS G12V (P01116 1-169 isoform P01116-2 G12V limits assumed): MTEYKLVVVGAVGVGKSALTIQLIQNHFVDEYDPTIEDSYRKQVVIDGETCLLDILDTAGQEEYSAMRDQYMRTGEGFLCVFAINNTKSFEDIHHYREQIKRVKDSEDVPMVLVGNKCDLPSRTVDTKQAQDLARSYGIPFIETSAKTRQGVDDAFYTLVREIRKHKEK
Chain of KRAS G12V (P62937 whole entry): as the sequence (P62937 whole entry) above
Summary of the method: as §1

KRAS WT = KRAS WT (Homo sapiens, UniProt P01116+P62937); assay: as above; assay type: biochemical
Chain of KRAS WT (P01116 1-169 isoform P01116-2 limits assumed): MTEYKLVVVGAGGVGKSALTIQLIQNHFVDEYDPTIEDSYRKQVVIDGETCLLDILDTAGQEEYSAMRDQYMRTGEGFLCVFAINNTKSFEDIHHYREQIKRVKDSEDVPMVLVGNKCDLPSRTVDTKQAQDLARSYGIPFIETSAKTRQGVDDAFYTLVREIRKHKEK
Chain of KRAS WT (P62937 whole entry): as the sequence (P62937 whole entry) above
Summary of the method: as §1

NCI-H358 (K-Ras G12C) = assay: CellTiter-Glo cell viability assay, 5-day treatment; assay type: cell-based; conditions: Homo sapiens, NCI-H358, 120 h, 5-day treatment; read-out: H358 Cell Viability assay data (K-Ras G12C, IC50)
Summary of the method: (§2)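 Seeded cells received test compound by direct dispensing. On day 5 the plates sat at room temperature approximately 30 minutes, then luminescence was measured. Data were normalized to DMSO and curve-fitted with four parameters.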

Capan-1 (K-Ras G12V) = assay: as above; assay type: cell-based; conditions: Homo sapiens, CAPAN-1, 120 h, 5-day treatment; read-out: Capan-1 Cell Viability assay data (K-Ras G12V, IC50)
Summary of the method: as §2

NRAS WT = NRAS WT (Homo sapiens, UniProt P01111+P62937); assay: Disruption of BRAF RBD interaction with Ras (FRET / MOA assay, with Cyclophilin A); assay type: biochemical; conditions: NRAS WT; read-out: NRAS WT FRET data IC50
Chain of NRAS WT (P01111 whole entry): as the sequence (P01111 whole entry G12C) above, with C12G counted along it
Chain of NRAS WT (P62937 whole entry): as the sequence (P62937 whole entry) above
Summary of the method: (§3)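 IC50 reflects compound-driven Ras:Cyclophilin A ternary complex displacing BRAF RBD, read as lowered TR-FRET ratio relative to DMSO after Eu anti-His (10 nM) and APC anti-GST (50 nM) detection for 1.5 h. Prior incubation 3 h, 25° C, with 12.5 nM GMPPNP-loaded Ras, 50 nM BRAF RBD, 25 μM Cyclophilin A; top compound 30 μM.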

NRAS Q61R = NRAS Q61R (Homo sapiens, UniProt P01111+P62937, Q61R); assay: as above; assay type: biochemical; conditions: NRAS Q61R; read-out: NRAS Q61R FRET data IC50
Chain of NRAS Q61R (P01111 whole entry Q61R): as the sequence (P01111 whole entry G12C) above, with C12G, Q61R counted along it
Chain of NRAS Q61R (P62937 whole entry): as the sequence (P62937 whole entry) above
Summary of the method: as §3

KRAS Q61H = KRAS Q61H (Homo sapiens, UniProt P01116+P62937, Q61H); assay: as above; assay type: biochemical; conditions: KRAS Q61H; read-out: KRAS Q61H FRET data IC50
Chain of KRAS Q61H (P01116 1-169 isoform P01116-2 Q61H limits assumed): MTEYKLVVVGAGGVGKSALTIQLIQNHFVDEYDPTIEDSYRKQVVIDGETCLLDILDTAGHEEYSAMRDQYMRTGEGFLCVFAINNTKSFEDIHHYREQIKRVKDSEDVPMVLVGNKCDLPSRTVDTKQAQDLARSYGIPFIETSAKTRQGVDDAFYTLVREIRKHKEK
Chain of KRAS Q61H (P62937 whole entry): as the sequence (P62937 whole entry) above
Summary of the method: as §3

NRAS Q61K = NRAS Q61K (Homo sapiens, UniProt P01111+P62937, Q61K); assay: as above; assay type: biochemical; conditions: NRAS Q61K; read-out: NRAS Q61K FRET data IC50
Chain of NRAS Q61K (P01111 whole entry Q61K): as the sequence (P01111 whole entry G12C) above, with C12G, Q61K counted along it
Chain of NRAS Q61K (P62937 whole entry): as the sequence (P62937 whole entry) above
Summary of the method: as §3

[1] = read-out: KRAS G12D FRET data, IC50
[2] = KRAS G13D, read-out: KRAS G13D FRET data IC50
[3] = read-out: KRAS G12C FRET data, IC50
[4] = NRAS G12C, read-out: NRAS G12C FRET data IC50
[5] = read-out: KRAS G13C FRET data, IC50
[6] = read-out: KRAS G12S FRET data, IC50
[7] = KRAS G12V, read-out: KRAS G12V FRET data IC50
[8] = KRAS WT, read-out: KRAS WT FRET data IC50
[9] = KRAS G13D FRET data IC50, KRAS G13D
[10] = NRAS G12C FRET data IC50, NRAS G12C
[11] = KRAS G12V FRET data IC50, KRAS G12V
[12] = KRAS WT FRET data IC50, KRAS WT

Chain of KRAS G12D (P01116 1-169 isoform P01116-2 G12D limits assumed): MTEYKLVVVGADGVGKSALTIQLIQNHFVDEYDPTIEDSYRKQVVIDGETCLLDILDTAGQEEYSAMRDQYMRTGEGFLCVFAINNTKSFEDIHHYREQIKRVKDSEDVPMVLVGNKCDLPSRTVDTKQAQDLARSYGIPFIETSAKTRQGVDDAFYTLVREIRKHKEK
Chain of KRAS G12D (P62937 whole entry): as the sequence (P62937 whole entry) above

| Compound | IC50 (KRAS G12D; [1]) [nM] | IC50 (KRAS G13D; [2]) [nM] | IC50 (KRAS G12C; [3]) [nM] | IC50 (NRAS G12C; [4]) [nM] | IC50 (KRAS G13C; [5]) [nM] | IC50 (KRAS G12S; [6]) [nM] | IC50 (KRAS G12V; [7]) [nM] | IC50 (KRAS WT; [8]) [nM] | IC50 (NCI-H358 (K-Ras G12C)) [nM] | IC50 (Capan-1 (K-Ras G12V)) [nM] | IC50 (NRAS WT) [nM] | IC50 (NRAS Q61R) [nM] | IC50 (KRAS Q61H) [nM] | IC50 (NRAS Q61K) [nM] | other results |
| --- | --- | --- | --- | --- | --- | --- | --- | --- | --- | --- | --- | --- | --- | --- | --- |
| CCn1c(-c2cccnc2[C@H](C)OC)c2c3cc(ccc31)-c1csc(n1)C[C@H](NC(=O)[C@H](C(C)C)N(C)C(=O)N1CCC3(CCN(C)CC3)C1)C(=O)N1CCC[C@H](N1)C(=O)OCC(C)(C)C2 (atropisomer, axis not shown) [Example A565] | 100 to 1000 | 100 to 1000 | 10 to 100 | 10 to 100 | 100 to 1000 | 10 to 100 | 100 to 1000 | 10 to 100 | 10 to 100 | 10 to 100 | 10 to 100 | 10 to 100 | 10 to 100 | 10 to 100 |  |
| CCn1c(-c2cccnc2[C@H](C)OC)c2c3cc(ccc31)-c1csc(n1)C[C@H](NC(=O)[C@H](C(C)C)N(C)C(=O)N1CC[C@@H](N(C)C)C1)C(=O)N1CCC[C@H](N1)C(=O)OCC(C)(C)C2 (atropisomer, axis not shown) [Example A566] | 100 to 1000 | 100 to 1000 | 100 to 1000 | 100 to 1000 | 100 to 1000 | 100 to 1000 | 100 to 1000 | 100 to 1000 | 10 to 100 | 10 to 100 | 100 to 1000 | 100 to 1000 | 10 to 100 | 10 to 100 |  |
| CCn1c(-c2cccnc2[C@H](C)OC)c2c3cc(ccc31)-c1csc(n1)C[C@H](NC(=O)[C@H](C(C)C)N(C)C(=O)N1C[C@H](N)[C@@H](F)C1)C(=O)N1CCC[C@H](N1)C(=O)OCC(C)(C)C2 (atropisomer, axis not shown) [Example A567] | 100 to 1000 | 100 to 1000 | 10 to 100 | 10 to 100 | 100 to 1000 | 100 to 1000 | 100 to 1000 | 100 to 1000 | 10 to 100 | 100 to 1000 | 100 to 1000 | 100 to 1000 | 10 to 100 | 10 to 100 |  |
| CCn1c(-c2cccnc2[C@H](C)OC)c2c3cc(ccc31)-c1csc(n1)C[C@H](NC(=O)[C@H](C(C)C)N(C)C(=O)N1CCC(N(C)C)CC1)C(=O)N1CCC[C@H](N1)C(=O)OCC(C)(C)C2 (atropisomer, axis not shown) [Example A571] |  |  |  |  |  |  |  |  | 10 to 100 | 10 to 100 | 10 to 100 | 100 to 1000 | 10 to 100 | 10 to 100 | IC50 (KRAS G12D; KRAS G12D FRET data, IC50): 100 to 1000 nM; IC50 (KRAS G13D; [9]): 100 to 1000 nM; IC50 (KRAS G12C; KRAS G12C FRET data, IC50): 10 to 100 nM; IC50 (NRAS G12C; [10]): 10 to 100 nM; IC50 (KRAS G13C; KRAS G13C FRET data, IC50): 100 to 1000 nM; IC50 (KRAS G12S; KRAS G12S FRET data, IC50): 100 to 1000 nM; IC50 (KRAS G12V; [11]): 100 to 1000 nM; IC50 (KRAS WT; [12]): 10 to 100 nM |
| CCn1c(-c2cccnc2[C@H](C)OC)c2c3cc(ccc31)-c1csc(n1)C[C@H](NC(=O)[C@H](C(C)C)N(C)C(=O)N1CCC[C@H](CN(C)C)C1)C(=O)N1CCC[C@H](N1)C(=O)OCC(C)(C)C2 (atropisomer, axis not shown) [Example A573] |  |  |  |  |  |  |  |  | < 10 | 10 to 100 | 10 to 100 | 100 to 1000 | 10 to 100 | 10 to 100 | IC50 (KRAS G12D; KRAS G12D FRET data, IC50): 10 to 100 nM; IC50 (KRAS G13D; [9]): 10 to 100 nM; IC50 (KRAS G12C; KRAS G12C FRET data, IC50): 10 to 100 nM; IC50 (NRAS G12C; [10]): 10 to 100 nM; IC50 (KRAS G13C; KRAS G13C FRET data, IC50): 10 to 100 nM; IC50 (KRAS G12S; KRAS G12S FRET data, IC50): 10 to 100 nM; IC50 (KRAS G12V; [11]): 100 to 1000 nM; IC50 (KRAS WT; [12]): 10 to 100 nM |
| CCn1c(-c2cccnc2[C@H](C)OC)c2c3cc(ccc31)-c1csc(n1)C[C@H](NC(=O)[C@H](C(C)C)N(C)C(=O)N1CC(CN(C)C)(OC)C1)C(=O)N1CCC[C@H](N1)C(=O)OCC(C)(C)C2 (atropisomer, axis not shown) [Example A575] | 1000 to 10000 | 1000 to 10000 | 1000 to 10000 | 1000 to 10000 | 1000 to 10000 | 1000 to 10000 | 1000 to 10000 | 1000 to 10000 | 100 to 1000 | 100 to 1000 | 1000 to 10000 | 1000 to 10000 | 1000 to 10000 | 1000 to 10000 |  |
| CCn1c(-c2cc(C3CCN(C)CC3)cnc2[C@H](C)OC)c2c3cc(ccc31)-c1cc(O)cc(c1)C[C@H](NC(=O)[C@H](C(C)C)N(C)C(=O)[C@@H]1OCC[C@@H]1c1ccccc1)C(=O)N1CCC[C@H](N1)C(=O)OCC(C)(C)C2 (atropisomer, axis not shown) [Example A577] | 10 to 100 | 10 to 100 | < 10 | < 10 | 10 to 100 | < 10 | 10 to 100 | 10 to 100 | < 10 | < 10 | < 10 | < 10 | < 10 | 10 to 100 |  |
| CCn1c(-c2cccnc2[C@H](C)OC)c2c3cc(ccc31)-c1csc(n1)C[C@H](NC(=O)[C@H](CC1CC1)N(C)C(=O)N1CC(OC)C1)C(=O)N1CCC[C@H](N1)C(=O)OCC(C)(C)C2 (atropisomer, axis not shown) [Example A578] | 100 to 1000 | 10 to 100 | 10 to 100 | < 10 | 10 to 100 | 10 to 100 | 10 to 100 | 10 to 100 | 10 to 100 | 100 to 1000 | 10 to 100 | 10 to 100 | 10 to 100 | 10 to 100 |  |
